Data: ChEMBL document CHEMBL1201862, “PubChem BioAssay data set” (2004)
Calls of active or inactive are those of the source.

Experiments:
[1] = molecular target: Bcl-2-like protein 10 (Homo sapiens, UniProt Q9HD36); assay: displacers of TR3 peptide from Bcl-B, primary screen, selectivity assay for Bfl-1 inhibitor project, biochemical, fluorescence polarization, FITC-TR3 peptide (AID 748);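 note: fluorescence polarization from a fluorescein-labelled TR3 peptide binding purified Bcl-B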
[2] = Luminescence Cell-Based Dose Response HTS to Identify Activators of 5'UTR Stem-Loop Driven Prion Protein mRNA Translation in H4-C Neuroglioblastoma Cells. [Related pubchem assays: 1829 (Project Summary), 1814 (Primary HTS)]; type: functional
[3] = Luminescence Cell-Based Dose Response HTS to Identify Activators of Luciferase Translation or Activity in H4 […] Cells. [Related pubchem assays: 1829 (Project Summary), 1814 (Primary HTS)]; type: functional
[4] = Luminescence Cell-Based Dose Retest to Confirm Activators of 5'UTR Stem-Loop Driven Alpha-Synuclein mRNA Translation in H4 Neuroglioblastoma Cells. [Related pubchem assays (depositor defined):AID1813, AID1829]; type: functional
[5] = Luminescence Cell-Based Dose Confirmation HTS to Identify Activators of 5'UTR Stem-Loop Driven Alpha-Synuclein mRNA Translation in H4 Neuroglioblastoma Cells. [Related pubchem assays: 1829 (Project Summary), 1814 (Primary HTS)]; type: functional
[6] = Luminescence Cell-Based Dose Response HTS to Identify Activators of Luciferase Translation or Activity in H4-C Neuroglioblastoma Cells. [Related pubchem assays: 1829 (Project Summary), 1814 (Primary HTS)]; type: functional
[7] = system: H4; assay: Luminescence Cell-Based Dose Response HTS to Identify Activators of 5'UTR Stem-Loop Driven Prion Protein mRNA Translation in H4 Neuroglioblastoma Cells. [Related pubchem assays: 1829 (Project Summary), 1814 (Primary HTS)]; type: functional; settings: Homo sapiens
[8] = molecular target: T1, Mu-type opioid receptor (Homo sapiens, UniProt P35372); assay: SAR Analysis of Antagonists of the MOR Receptor using an Image-Based Assay - Set 3. [Related pubchem assays (depositor defined):AID1777, AID1785, AID1786, AID1966, AID2133, AID2136, AID2284, AID2285, AID2420]; type: functional
[9] = molecular target: T2, Kappa-type opioid receptor (Homo sapiens, UniProt P41145); assay: SAR analysis of Antagonists of the Kappa Opioid Receptor (KOR) using an Image-Based Assay - Set 3. [Related pubchem assays (depositor defined):AID1777, AID1785]; type: functional
[10] = molecular target: T3, Delta-type opioid receptor (Homo sapiens, UniProt P41143); assay: SAR Analysis of Antagonists of the DOR Receptor using an Image-Based Assay - Set 3. [Related pubchem assays (depositor defined):AID1777, AID1785]; type: functional
[11] = molecular target: T2, Kappa-type opioid receptor; assay: SAR analysis of small molecule antagonists of the kappa opioid receptor via a luminescent beta-arrestin assay - Set 3. [Related pubchem assays (depositor defined):AID1777, AID1778, AID1785, AID1786, AID1966, AID2133, AID2136, AID2285, AID2495]; type: functional
[12] = inhibition of K1F phage lysis, E. coli UTI89, bacterial capsule biogenesis inhibitors, alamar blue (AID 488966); type: functional
[13] = molecular target: T2, Kappa-type opioid receptor; assay: KOR agonist analogs, arrestin-GFP redistribution, SAR follow-up, imaging, image-based, set 3 (AID 488833); type: functional
[14] = molecular target: T3, Delta-type opioid receptor; assay: SAR Analysis of Agonists of the DOR Receptor using an Image-Based Assay - Set 3. [Related pubchem assays (depositor defined):AID1777, AID1786]; type: functional
[15] = molecular target: T1, Mu-type opioid receptor; assay: SAR Analysis of Agonists of the MOR Receptor using an Image-Based Assay - Set 3. [Related pubchem assays (depositor defined):AID1777, AID1785, AID1786, AID1966, AID2133, AID2136, AID2284, AID2285, AID2352]; type: functional
[16] = molecular target: T2, Kappa-type opioid receptor; assay: SAR analysis of small molecule agonists of the kappa opioid receptor via a luminescent beta-arrestin assay - Set 3. [Related pubchem assays (depositor defined):AID1777, AID1785, AID1786, AID1966, AID2133, AID2136, AID2284, AID2500]; type: functional
[17] = molecular target: Potassium voltage-gated channel subfamily KQT member 2 (Rattus norvegicus, UniProt O88943); assay: retigabine-insensitive KCNQ2 potentiators, concentration-response, dose response, cell-based, retigabine-insensitive compounds (AID 2654); type: functional
[18] = molecular target: Hexokinase (Trypanosoma brucei, UniProt Q38C41); assay: Confirmation assay for inhibitors of Trypanosoma brucei hexokinase 1-Analogue-first series. [Related pubchem assays (depositor defined):AID1430, AID1632, AID2516, AID2560, AID2579, AID2600, AID449725, AID492951]; type: functional
[19] = molecular target: NACHT, LRR and PYD domains-containing protein 1 (Homo sapiens, UniProt Q9C000); assay: NALP1 inhibitors in yeast, dose response, luminescent (AID 488860); type: functional
[20] = system: Saccharomyces cerevisiae; assay: NALP1 inhibitor project selectivity study, Caspase-1/ASC signal blockade IC50 in S. cerevisiae (AID 488863); type: functional, organism-based
[21] = molecular target: T4, Intestinal-type alkaline phosphatase (Homo sapiens, UniProt P09923); assay: human IAP activators, dose response, biochemical, luminescent, uHTS hits, set 2 (AID 488817); type: functional;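 note: potency of activators that raise enzyme activity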
[22] = molecular target: T5, Intestinal-type alkaline phosphatase (Mus musculus, UniProt P24822); assay: PubChem AID 488874; type: functional
[23] = molecular target: T4, Intestinal-type alkaline phosphatase; assay: human intestinal alkaline phosphatase activators, dose response, biochemical, luminescence, uHTS hits (AID 463120); type: functional
[24] = molecular target: T6, Alkaline phosphatase, tissue-nonspecific isozyme (Homo sapiens, UniProt P05186); assay: TNAP enzyme activators, dose response, selectivity assay for human IAP activator project, biochemical, TNAP isozyme, human IAP uHTS hits (AID 488886); type: functional;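 note: potency of compounds raising TNAP activity as a selectivity check on IAP activators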
T6 sequence (P05186 whole entry): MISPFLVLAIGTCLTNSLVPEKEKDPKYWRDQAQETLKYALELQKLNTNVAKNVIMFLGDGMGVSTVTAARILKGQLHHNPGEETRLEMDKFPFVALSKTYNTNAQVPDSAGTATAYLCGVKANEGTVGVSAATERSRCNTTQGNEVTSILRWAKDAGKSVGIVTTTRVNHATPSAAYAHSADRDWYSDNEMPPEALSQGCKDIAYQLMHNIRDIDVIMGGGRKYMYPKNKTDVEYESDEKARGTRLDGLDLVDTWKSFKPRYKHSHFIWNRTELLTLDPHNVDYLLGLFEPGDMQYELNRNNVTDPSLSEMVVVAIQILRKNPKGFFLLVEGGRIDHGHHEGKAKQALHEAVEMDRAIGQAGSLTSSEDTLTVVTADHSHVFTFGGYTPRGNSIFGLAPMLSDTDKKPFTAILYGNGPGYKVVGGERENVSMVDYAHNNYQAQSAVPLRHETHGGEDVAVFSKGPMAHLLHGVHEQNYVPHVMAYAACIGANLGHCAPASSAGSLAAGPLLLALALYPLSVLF

[25] = molecular target: T7, SUMO-activating enzyme (Homo sapiens, UniProt Q9UBT2); assay: inhibitors of in vitro SUMOylation cascade, primary screen, biochemical, HTRF, uHTS (AID 2006); type: protein-complex assay
[26] = molecular target: T8, Probable nicotinate-nucleotide adenylyltransferase (Staphylococcus aureus (strain N315), UniProt P65502); type: functional, Staphylococcus aureus subsp. aureus N315; settings: read-out: IC50_Mean;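 for IC50 Mean: confirmatory dose-response retesting of NadD inhibitor hits first found in an ultra-high-throughput screen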
[27] = molecular target: Induced myeloid leukemia cell differentiation protein Mcl-1 (Homo sapiens, UniProt Q07820); type: functional
[28] = molecular target: T7, SUMO-activating enzyme; assay: SUMOylation inhibitor hit validation, confirmation, SUMOylation inhibitor project, biochemical, AlphaScreen (AID 2018); type: functional
[29] = molecular target: T8, Probable nicotinate-nucleotide adenylyltransferase; type: functional, Staphylococcus aureus subsp. aureus N315
[30] = molecular target: T5, Intestinal-type alkaline phosphatase; assay: PubChem AID 488875; type: functional
[31] = molecular target: T9, Microphthalmia-associated transcription factor (Homo sapiens, UniProt O75030); assay: TRPM1 promoter luciferase signal decrease, dose response, MITF inhibitor project, cell-based, SK-MEL-5, cherry-picked, set 3 (AID 493073); type: functional
T9 sequence (O75030 whole entry): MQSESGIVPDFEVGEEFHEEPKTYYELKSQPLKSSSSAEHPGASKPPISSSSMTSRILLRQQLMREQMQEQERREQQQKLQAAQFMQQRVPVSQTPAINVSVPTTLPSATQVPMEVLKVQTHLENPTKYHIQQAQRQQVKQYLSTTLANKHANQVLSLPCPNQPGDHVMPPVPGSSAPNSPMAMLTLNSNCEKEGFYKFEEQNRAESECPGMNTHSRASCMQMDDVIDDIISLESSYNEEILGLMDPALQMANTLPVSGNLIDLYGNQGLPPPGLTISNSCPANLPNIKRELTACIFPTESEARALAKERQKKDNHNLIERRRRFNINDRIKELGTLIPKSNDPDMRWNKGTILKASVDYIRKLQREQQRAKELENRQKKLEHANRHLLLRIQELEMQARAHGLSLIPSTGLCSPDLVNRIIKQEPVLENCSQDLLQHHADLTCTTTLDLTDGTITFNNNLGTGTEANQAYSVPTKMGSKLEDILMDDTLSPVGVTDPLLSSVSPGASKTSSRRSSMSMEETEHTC

[32] = molecular target: T10, Voltage-gated N-type calcium channel alpha-1B subunit/Amyloid beta A4 precursor protein-binding family A member 1 (Homo sapiens, UniProt Q00975+Q02410); type: protein assay
[33] = molecular target: T10, Voltage-gated N-type calcium channel alpha-1B subunit/Amyloid beta A4 precursor protein-binding family A member 1; type: protein assay; remark: listed apart in the source
[34] = molecular target: Hepatocyte nuclear factor 4-alpha (Homo sapiens, UniProt P41235); type: functional, cell-based;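 note: biochemical luminescence-based dose-response counterscreen measuring inhibition of HNF4 dimerization, run alongside a screen for blockers of ABHD5–perilipin-5 interaction; split luciferase complementation of HNF4 fusion proteins in cell lysate measuring dimerization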
[35] = molecular target: E3 ubiquitin-protein ligase Mdm2 (Homo sapiens, UniProt Q00987); assay: enhancers of MDM2-luciferase reporter signal, concentration-effect titration, project on inhibitors of MDM2 ubiquitin ligase, cellular assay, luminescent readout, 384-well plate format (AID 1394); type: functional;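 note: MDM2 E3 inhibitors raise luminescence so EC50 is for signal enhancement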
[36] = molecular target: NACHT, LRR and PYD domains-containing protein 3 (Homo sapiens, UniProt Q96P20); assay: NALP3 inhibitors in yeast, dose response, luminescent (AID 488799); type: functional
[37] = molecular target: Signal transducer and activator of transcription 3 (Homo sapiens, UniProt P40763); assay: STAT3 activators, late-stage profile, late-stage follow-up, cell-based, STAT1 reporter, BCL3 qPCR, cytotoxicity, panel member STAT3 Activation (AID 2049)

T2 sequence (P41145 whole entry): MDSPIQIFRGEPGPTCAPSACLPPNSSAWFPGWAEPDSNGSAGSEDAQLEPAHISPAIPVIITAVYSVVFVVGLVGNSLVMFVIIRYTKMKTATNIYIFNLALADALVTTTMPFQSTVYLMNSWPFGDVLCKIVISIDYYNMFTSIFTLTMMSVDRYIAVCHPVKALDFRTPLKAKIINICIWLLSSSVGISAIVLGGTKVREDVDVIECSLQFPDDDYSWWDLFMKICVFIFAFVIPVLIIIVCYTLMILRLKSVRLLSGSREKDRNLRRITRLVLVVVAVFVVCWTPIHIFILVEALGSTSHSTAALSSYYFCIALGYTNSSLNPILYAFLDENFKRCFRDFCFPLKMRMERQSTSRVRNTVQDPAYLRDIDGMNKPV
T4 sequence (P09923 whole entry): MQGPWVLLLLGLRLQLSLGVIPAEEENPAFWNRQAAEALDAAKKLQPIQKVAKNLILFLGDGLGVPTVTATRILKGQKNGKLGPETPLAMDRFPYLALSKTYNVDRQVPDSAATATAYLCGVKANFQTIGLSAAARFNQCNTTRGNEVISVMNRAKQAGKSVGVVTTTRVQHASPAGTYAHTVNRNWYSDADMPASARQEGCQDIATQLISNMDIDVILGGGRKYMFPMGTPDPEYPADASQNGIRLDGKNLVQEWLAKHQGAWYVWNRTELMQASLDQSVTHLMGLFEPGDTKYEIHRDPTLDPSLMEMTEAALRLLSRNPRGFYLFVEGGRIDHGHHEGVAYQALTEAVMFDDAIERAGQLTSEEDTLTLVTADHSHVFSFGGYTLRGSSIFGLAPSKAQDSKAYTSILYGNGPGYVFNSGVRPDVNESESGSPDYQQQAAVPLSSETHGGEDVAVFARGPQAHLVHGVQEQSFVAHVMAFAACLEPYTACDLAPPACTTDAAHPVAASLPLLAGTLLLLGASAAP
T10 sequence (Q00975 whole entry): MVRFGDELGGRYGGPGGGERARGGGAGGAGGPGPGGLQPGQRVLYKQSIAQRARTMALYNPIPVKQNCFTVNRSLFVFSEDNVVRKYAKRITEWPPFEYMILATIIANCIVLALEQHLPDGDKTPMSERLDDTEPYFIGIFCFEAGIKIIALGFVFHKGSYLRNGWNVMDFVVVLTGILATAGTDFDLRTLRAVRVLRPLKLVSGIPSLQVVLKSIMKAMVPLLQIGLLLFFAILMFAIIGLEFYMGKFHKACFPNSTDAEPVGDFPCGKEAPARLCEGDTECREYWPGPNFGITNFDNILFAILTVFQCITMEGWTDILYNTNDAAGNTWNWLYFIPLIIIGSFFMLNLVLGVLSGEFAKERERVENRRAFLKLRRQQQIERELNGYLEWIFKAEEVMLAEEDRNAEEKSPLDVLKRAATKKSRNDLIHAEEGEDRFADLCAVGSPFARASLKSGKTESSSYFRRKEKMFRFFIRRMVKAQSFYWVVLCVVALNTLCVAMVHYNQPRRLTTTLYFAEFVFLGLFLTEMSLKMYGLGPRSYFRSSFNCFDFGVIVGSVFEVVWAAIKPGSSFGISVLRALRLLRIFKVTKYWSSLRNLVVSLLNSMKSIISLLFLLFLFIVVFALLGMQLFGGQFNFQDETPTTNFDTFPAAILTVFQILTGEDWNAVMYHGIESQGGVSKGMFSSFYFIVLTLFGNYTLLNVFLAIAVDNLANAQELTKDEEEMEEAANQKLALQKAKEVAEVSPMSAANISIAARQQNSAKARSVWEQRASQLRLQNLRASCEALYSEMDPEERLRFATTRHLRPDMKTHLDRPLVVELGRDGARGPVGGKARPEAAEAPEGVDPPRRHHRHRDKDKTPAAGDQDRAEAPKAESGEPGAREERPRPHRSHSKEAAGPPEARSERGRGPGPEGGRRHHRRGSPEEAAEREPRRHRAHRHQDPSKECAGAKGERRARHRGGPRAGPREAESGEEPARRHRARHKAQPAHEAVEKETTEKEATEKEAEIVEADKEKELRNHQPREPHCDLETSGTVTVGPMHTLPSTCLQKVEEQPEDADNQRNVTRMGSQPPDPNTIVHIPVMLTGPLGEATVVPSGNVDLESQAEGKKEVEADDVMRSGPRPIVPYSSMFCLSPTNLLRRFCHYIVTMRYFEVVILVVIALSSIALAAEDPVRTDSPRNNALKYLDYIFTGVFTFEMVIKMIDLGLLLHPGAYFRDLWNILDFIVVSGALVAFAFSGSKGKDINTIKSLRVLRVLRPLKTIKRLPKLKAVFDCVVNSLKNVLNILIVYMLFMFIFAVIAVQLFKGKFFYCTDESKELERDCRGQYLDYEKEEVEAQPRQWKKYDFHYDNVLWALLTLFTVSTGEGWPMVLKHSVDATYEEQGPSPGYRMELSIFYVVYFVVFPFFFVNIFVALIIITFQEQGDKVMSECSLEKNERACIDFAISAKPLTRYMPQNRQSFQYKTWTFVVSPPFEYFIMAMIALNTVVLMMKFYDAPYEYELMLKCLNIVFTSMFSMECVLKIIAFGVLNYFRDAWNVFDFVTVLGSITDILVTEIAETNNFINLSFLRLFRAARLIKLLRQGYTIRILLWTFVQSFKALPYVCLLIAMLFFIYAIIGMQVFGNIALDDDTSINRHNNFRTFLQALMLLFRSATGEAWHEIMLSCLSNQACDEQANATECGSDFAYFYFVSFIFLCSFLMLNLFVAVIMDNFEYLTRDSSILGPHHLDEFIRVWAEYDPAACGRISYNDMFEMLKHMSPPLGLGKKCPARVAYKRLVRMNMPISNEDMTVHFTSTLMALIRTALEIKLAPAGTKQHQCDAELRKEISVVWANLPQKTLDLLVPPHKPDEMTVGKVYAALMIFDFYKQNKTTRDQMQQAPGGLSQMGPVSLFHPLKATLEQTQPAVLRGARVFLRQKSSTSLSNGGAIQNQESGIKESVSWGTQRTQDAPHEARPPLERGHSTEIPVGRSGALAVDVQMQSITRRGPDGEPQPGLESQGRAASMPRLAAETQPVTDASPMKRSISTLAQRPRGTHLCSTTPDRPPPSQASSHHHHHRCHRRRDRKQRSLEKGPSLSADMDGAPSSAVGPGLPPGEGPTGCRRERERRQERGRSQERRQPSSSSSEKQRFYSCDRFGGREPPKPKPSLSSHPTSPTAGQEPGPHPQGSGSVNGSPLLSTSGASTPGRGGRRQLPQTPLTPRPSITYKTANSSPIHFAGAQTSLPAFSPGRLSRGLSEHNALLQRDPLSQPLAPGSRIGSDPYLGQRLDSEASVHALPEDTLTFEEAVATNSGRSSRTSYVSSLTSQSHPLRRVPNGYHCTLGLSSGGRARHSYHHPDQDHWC
T10 sequence (Q02410 whole entry): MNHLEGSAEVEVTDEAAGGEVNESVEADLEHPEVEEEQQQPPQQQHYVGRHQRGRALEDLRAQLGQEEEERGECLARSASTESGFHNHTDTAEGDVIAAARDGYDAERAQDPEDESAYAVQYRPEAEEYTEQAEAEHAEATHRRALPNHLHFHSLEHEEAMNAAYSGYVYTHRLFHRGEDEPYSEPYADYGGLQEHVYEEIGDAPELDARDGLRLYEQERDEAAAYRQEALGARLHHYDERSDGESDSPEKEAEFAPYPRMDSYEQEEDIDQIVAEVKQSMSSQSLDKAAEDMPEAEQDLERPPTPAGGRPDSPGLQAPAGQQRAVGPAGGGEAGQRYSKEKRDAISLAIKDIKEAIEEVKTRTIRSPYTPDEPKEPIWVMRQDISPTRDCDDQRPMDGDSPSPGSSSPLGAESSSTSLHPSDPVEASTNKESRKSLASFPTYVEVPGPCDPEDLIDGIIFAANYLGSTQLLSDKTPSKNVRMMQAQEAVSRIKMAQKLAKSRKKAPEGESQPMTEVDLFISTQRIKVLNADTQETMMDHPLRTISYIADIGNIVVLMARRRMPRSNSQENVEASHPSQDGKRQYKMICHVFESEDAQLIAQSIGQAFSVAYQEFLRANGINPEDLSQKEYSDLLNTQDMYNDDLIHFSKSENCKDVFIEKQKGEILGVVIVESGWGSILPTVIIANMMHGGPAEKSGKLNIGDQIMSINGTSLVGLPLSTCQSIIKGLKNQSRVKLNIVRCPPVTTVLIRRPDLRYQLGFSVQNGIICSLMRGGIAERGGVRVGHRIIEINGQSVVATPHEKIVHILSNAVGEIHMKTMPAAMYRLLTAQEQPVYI
T7 sequence (Q9UBE0 whole entry): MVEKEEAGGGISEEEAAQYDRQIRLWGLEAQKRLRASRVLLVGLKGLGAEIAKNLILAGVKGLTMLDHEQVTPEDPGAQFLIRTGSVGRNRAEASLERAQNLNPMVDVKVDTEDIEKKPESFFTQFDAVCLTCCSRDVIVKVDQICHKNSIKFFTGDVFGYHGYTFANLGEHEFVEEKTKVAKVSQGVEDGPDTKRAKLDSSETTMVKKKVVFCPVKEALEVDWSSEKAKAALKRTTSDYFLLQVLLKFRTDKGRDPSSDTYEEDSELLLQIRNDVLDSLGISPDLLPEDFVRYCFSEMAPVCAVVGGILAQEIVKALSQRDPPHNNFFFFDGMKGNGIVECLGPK
T7 sequence (Q9UBT2 whole entry): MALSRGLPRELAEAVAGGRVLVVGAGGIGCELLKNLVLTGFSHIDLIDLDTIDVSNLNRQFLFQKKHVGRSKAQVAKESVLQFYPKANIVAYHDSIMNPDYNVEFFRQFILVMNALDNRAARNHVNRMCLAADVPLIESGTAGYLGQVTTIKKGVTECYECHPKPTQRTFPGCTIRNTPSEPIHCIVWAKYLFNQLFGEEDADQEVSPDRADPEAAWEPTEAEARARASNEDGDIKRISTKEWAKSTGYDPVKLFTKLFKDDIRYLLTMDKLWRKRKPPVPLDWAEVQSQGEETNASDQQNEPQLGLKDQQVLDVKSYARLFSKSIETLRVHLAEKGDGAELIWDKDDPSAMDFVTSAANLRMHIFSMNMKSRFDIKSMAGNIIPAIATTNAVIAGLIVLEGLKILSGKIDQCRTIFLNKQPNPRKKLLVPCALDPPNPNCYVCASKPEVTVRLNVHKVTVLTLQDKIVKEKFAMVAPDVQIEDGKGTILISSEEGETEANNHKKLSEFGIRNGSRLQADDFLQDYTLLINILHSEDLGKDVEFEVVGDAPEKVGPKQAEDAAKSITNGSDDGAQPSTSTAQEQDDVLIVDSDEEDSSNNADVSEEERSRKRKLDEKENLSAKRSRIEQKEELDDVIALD

## COc1ccc(OC)c(NC(=O)CCN2CCC(C)CC2)c1
[1]
  IC50: > 100 µM (inactive)

## O=C1CCCCCN1Cc1nnc(SCc2nc3ccccc3s2)n1-c1ccccn1
[2]
  EC50: 1.89 µM (active)
[3]
  EC50: 25 µM (active)
[4]
  EC50: > 195 µM (inactive)
[5]
  EC50: 1.08 µM (active)
[6]
  EC50: 0.207 µM (active)
[7]
  EC50: 80.9 µM (inconclusive)

## CC(C)N(CCNC(=O)c1ccc(CNS(=O)(=O)c2ccc(Br)cc2)cc1)Cc1ccccc1
[8]
  IC50: 3.22 µM (active)
[9]
  IC50: 0.421 µM (active)
[10]
  IC50: > 32 µM (inactive)
[11]
  IC50: 1.32 µM (active)

## COc1ccc(NC(=O)/C=C2\SC(=O)NC2=O)cc1
[12]
  IC50: > 150 µM (active)

## Clc1ccccc1CSc1nnc(-c2ccccn2)n1Cc1cccs1
[13]
  EC50: 4.06 µM (active)
[14]
  EC50: > 32 µM (inactive)
[15]
  EC50: > 32 µM (inactive)
[16]
  EC50: 10.1 µM (inactive)

## O=C(Nc1ccc(Cl)nc1)Nc1cccc(F)c1
[17]
  EC50: 2.81 µM (active)

## COc1ccc(C(=O)N2CCC(=O)c3ccc(Cl)cc32)cc1
[18]
  IC50: > 25 µM (inactive)

## Cc1cc(Cl)c(OCCCCN2CCOCC2)c(Br)c1
[19]
  IC50: > 100 µM (inactive)
[20]
  IC50: > 100 µM (inactive)

## COc1ccccc1C1=NN(C2=NN=C(N)Cc3ncnn32)C(O)(C(F)(F)F)C1 (stereo not given)
[21]
  EC50: 9.66 µM (active)
[22]
  IC50: 42.2 µM (active)
[23]
  EC50: 7.06 µM (active)
[24]
  EC50: 11.7 µM (active)

## N#Cc1c(NC(=O)CSc2ncnc3sccc23)oc(-c2ccco2)c1-c1ccco1
[25]
  IC50: 22.9 µM (active)
[26]
  IC50: 27.8 µM (active)
[27]
  IC50: 4.69 µM (active)
[28]
  IC50: 2.82 µM (active)
[29]
  IC50: 8.79 µM (active)

## Cc1cccc(NS(=O)(=O)c2cccc(C(=O)NNC(=O)c3ccccc3O)c2)c1
[30]
  EC50: > 100 µM (inactive)
[21]
  EC50: 23.5 µM (active)
[23]
  EC50: 16.1 µM (active)
[24]
  EC50: 0.705 µM (active)

## COCCNC(=O)/C(C#N)=C/c1cccc(/C=C(\C#N)C(=O)NCCOC)c1
[31]
  AC50: 12.7 µM (active)
[32]
  IC50: > 56.8 µM (not active)
[33]
  IC50: > 50 µM (inactive)
[34]
  IC50: 1.51 µM (active)
[35]
  EC50: 0.94 µM (active)

## CCCCCC(=O)N1CCN(CC/N=C/C2=C(O)CC(c3ccco3)CC2=O)CC1 (stereo not given)
[36]
  IC50: 7.3 µM (active)

## COc1ccccc1NC(=O)c1cc(-c2ccccc2)on1
[37]
  EC50: 9.62 µM (active)
